This experiment has as its target T1, recombinant human mPGES-1 (Homo sapiens, UniProt O14684).
T1 construct: made in house; host or cells: Rosetta E. coli (microsomal/membrane fraction)
T1 sequence (O14684 1-152): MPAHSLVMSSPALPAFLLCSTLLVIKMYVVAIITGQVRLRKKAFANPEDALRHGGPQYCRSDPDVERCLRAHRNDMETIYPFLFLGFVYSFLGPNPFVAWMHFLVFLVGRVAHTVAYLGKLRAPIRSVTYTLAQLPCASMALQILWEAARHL
Kind of experiment: mPGES-1 inhibition, HTRF detection of PGE2. It counts as biochemical. On the procedure: Microsomes from Rosetta E. coli bacteria expressing recombinant human mPGES-1 is dissolved in 0.1 M KPi pH 7.4 buffer containing 2.5 mM GSH. 50 μl of the enzyme is subsequently dispensed in a 384-well plate. 0.5 μl of the inhibitor dissolved in DMSO at is thereafter added to each well and incubated for 25 minutes at room temperature. Subsequently, 2 μl of PGH2 dissolved in an appropriate solvent is added to each well and after one minute the acidified stop solution containing FeCl2 is added. 4 μl of the total volume is transferred to a separate plate and diluted 750-fold in two separate steps before HTRF detection of PGE2.
The HTRf detection is performed by the use of a commercially available kit from CisBio essentially according to the manufacturer's protocol. Briefly, 10 μl of the diluted sample is transferred to a white 384-well plate. 5 μl of d2 and 5 μl Eu3+-Cryptate labeled anti-PGE2 is added to each well containing samples by the use of a Multidrop. The plate is covered with a plastic self-adhesive film, centrifuged at 1200 rpm for 1 minute and subsequently stored at +4° C. over night.
After over night incubation the fluorescence is measured by the use of an appropriate microplate reader. The fluorescence of europium cryptate, and d2 are measured using the following excitation and emission wavelength, europium cryptate: λmax^ex=307 nm, λmax^em=620 nm and d2: λmax^ex=620 nm, λmax^em=665 nm), respectively. The extent of the specific FRET is measured as a ratio of the emission intensity at 665 nm vs. that at 620 nm. A standard curve using synthetic PGE2 is used to quantify the amount of PGE2 in unknown samples.

The inhibition is the drop in the measured response relative to a control, in per cent.

For `O=C(N[C@H]1CC[C@H](C(F)(F)F)CC1)c1cc2nc(Nc3cnccc3C(F)(F)F)[nH]c2nc1OCC(F)F` [Example 799, 2-(4-Trifluoromethyl-pyridin-3-ylamino)-5-(2,2-difluoro-ethoxy)-N-(trans-4-trifluoromethyl-cyclohexyl)-3H-imidazo[4,5-b]pyridine-6-carboxamide], the inhibition at 10 µM worked out at 99%. Still for that read-out and setting: for `O=C(NCc1ccccc1C(F)(F)F)c1cc2nc(Nc3c(Cl)cncc3Cl)[nH]c2nc1OCC(F)(F)F` [Example 853, 2-(3,5-Dichloro-pyridin-4-ylamino)-5-(2,2,2-trifluoro-ethoxy)-N-(2-trifluoromethyl-benzyl)-3H-imidazo[4,5-b]pyridine-6-carboxamide] the value was 100%; for `CC(C)n1c(Nc2c(Cl)cccc2Cl)nc2cc(C(=O)NC3CCC(C)(C)CC3)cnc21` [Example 505, 2-(2,6-Dichlorophenylamino)-N-(4,4-dimethylcyclohexyl)-3-isopropyl-3H-imidazo[4,5-b]pyridine-6-carboxamide], 100%; for `O=C(Nc1ccc(Br)cc1)c1cc2nc(Nc3c(Cl)cncc3Cl)[nH]c2nc1OCC(F)F` [Example 804, 2-(3,5-Dichloro-pyridin-4-ylamino)-5-(2,2-difluoro-ethoxy)-N-(4-bromo-phenyl)-3H-imidazo[4,5-b]pyridine-6-carboxamide], 98%.

In the case of `Cn1c(Nc2c(Cl)cncc2Cl)nc2cc(C(=O)Nc3cc(C(F)(F)F)ccn3)c(OCC(F)F)nc21` [Example 836, 2-(3,5-Dichloro-pyridin-4-ylamino)-5-(2,2-difluoro-ethoxy)-N-(4-trifluoromethyl-pyridin-2-yl)-3-methyl-3H-imidazo[4,5-b]pyridine-6-carboxamide], the inhibition at 10 µM was 100%. Still for that read-out and setting: for `O=C(N[C@H]1CC[C@H](C(F)(F)F)CC1)c1cc2nc(Nc3c(Cl)ccc(Cl)c3F)[nH]c2nc1OCC(F)F` [Example 796, 2-(3,6-Dichloro-2-fluoro-phenylamino)-5-(2,2-difluoro-ethoxy)-N-(trans-4-trifluoromethyl-cyclohexyl)-3H-imidazo[4,5-b]pyridine-6-carboxamide] the value was 96%; for `COCCOc1nc2c(cc1C(=O)Nc1ccc(Br)cc1)nc(Nc1c(Cl)cncc1Cl)n2C` [Example 812, 2-(3,5-Dichloro-pyridin-4-ylamino)-5-(2-methoxy-ethoxy)-N-(4-bromo-phenyl)-3-methyl-3H-imidazo[4,5-b]pyridine-6-carboxamide], 97%; for `Cn1c(Nc2c(Cl)cncc2Cl)nc2cc(C(=O)NCc3ncccc3C(F)(F)F)c(OCC(F)(F)F)nc21` [Example 851, 2-(3,5-Dichloro-pyridin-4-ylamino)-5-(2,2,2-trifluoro-ethoxy)-N-((3-trifluoromethyl-pyridin-2-yl)-methyl)-3-methyl-3H-imidazo[4,5-b]pyridine-6-carboxamide], 98%. Same read-out and setting: for `CCCCCCNC(=O)c1cnc2c(c1)nc(Nc1c(Cl)cccc1Cl)n2C` [Example 439, 2-(2,6-Dichlorophenylamino)-N-hexyl-3-methyl-3H-imidazo[4,5-b]pyridine-6-carboxamide] the value was 91%; for `O=C(Nc1ccc(Cl)c(F)c1)c1cnc2[nH]c(Nc3c(Cl)cccc3Cl)nc2c1` [Example 154, 2-(2,6-Dichloro-phenylamino)-3H-imidazo[4,5-b]-pyridine-6-carboxylic acid (4-chloro-3-fluoro-phenyl)-amide], 91%; for `O=C(N[C@H]1CC[C@H](C(F)(F)F)CC1)c1cc2nc(Nc3cccnc3C(F)(F)F)[nH]c2nc1OCC(F)F` [Example 798, 2-(2-Trifluoromethyl-pyridin-3-ylamino)-5-(2,2-difluoro-ethoxy)-N-(trans-4-trifluoromethyl-cyclohexyl)-3H-imidazo[4,5-b]pyridine-6-carboxamide], 87%. On the same count and under the same terms, for `O=C(N[C@H]1CC[C@H](C(F)(F)F)CC1)c1cnc2[nH]c(Nc3c(Cl)cccc3Cl)nc2c1` [Example 459, 2-(2,6-Dichlorophenylamino)-N-((1r,4r)-4-trifluoromethyl-cyclohexyl)-3H-imidazo[4,5-b]pyridine-6-carboxamide] the value was 100%; for `Cn1c(Nc2c(Cl)cccc2Cl)nc2cc(C(=O)N[C@H]3CC[C@H](C)CC3)cnc21` [Example 453, 2-(2,6-Dichlorophenylamino)-3-methyl-N-((1r,4r)-4-methylcyclohexyl)-3H-imidazo[4,5-b]pyridine-6-carboxamide], 98%. On to `COCCOc1nc2[nH]c(Nc3c(Cl)cncc3Cl)nc2cc1C(=O)Nc1cc(C(F)(F)F)ccn1` [Example 808, 2-(3,5-Dichloro-pyridin-4-ylamino)-5-(2-methoxy-ethoxy)-N-(4-trifluoromethyl-pyridin-2-yl)-3H-imidazo[4,5-b]pyridine-6-carboxamide], for which the inhibition at 10 µM is 100%.

On to `COCCOc1nc2[nH]c(Nc3c(Cl)cncc3Cl)nc2cc1C(=O)NCc1ccccc1C(F)(F)F` [Example 800, 2-(3,5-Dichloro-pyridin-4-ylamino)-5-(2-methoxy-ethoxy)-N-((2-trifluoromethyl-phenyl)-methyl)-3H-imidazo[4,5-b]pyridine-6-carboxamide], for which the inhibition at 10 µM came to 98%.

`CC(=O)N(C)CCOc1nc2c(cc1C(=O)NCC(F)(F)C(F)(F)C(F)(F)C(F)(F)F)nc(Nc1c(Cl)cncc1Cl)n2C` [Example 811, 2-(3,5-Dichloro-pyridin-4-ylamino)-5-(2-(acetyl-methyl-amino)-ethoxy)-N-(2,2,3,3,4,4,5,5,5-nonafluoro-pentyl)-3-methyl-3H-imidazo[4,5-b]pyridine-6-carboxamide]: the inhibition at 1 µM stood at 94%.

As to `O=C(Nc1ccc(Br)cc1)c1cc2nc(Nc3c(F)cccc3Cl)[nH]c2nc1OCC(F)F` [Example 776, N-(4-Bromo-phenyl)-2-(2-fluoro-6-chloro-phenylamino)-5-(2,2-difluoroethoxy)-3H-imidazo[4,5-b]pyridine-6-carboxamide], the inhibition at 1 µM was 100%.

In the case of `O=C(Nc1ccc(Br)cc1)c1cc2nc(Nc3c(Cl)cncc3Cl)[nH]c2nc1OC1CCOC1` (stereo not shown) [Example 791, 2-(3,5-Dichloro-pyridin-4-ylamino)-5-(tetrahydrofuran-3-yl-oxy)-N-(4-bromo-phenyl)-3H-imidazo[4,5-b]pyridine-6-carboxamide], the inhibition at 10 µM turned out to be 89%. On the same count and under the same terms, then `Cn1c(Nc2c(Cl)cc(F)cc2Cl)nc2cc(C(=O)N[C@H]3CC[C@H](C(F)(F)F)CC3)c(OCCF)nc21` [Example 870, 2-(2,6-Dichloro-4-fluoro-phenylamino)-5-(2-fluoro-ethoxy)-N-(trans-4-trifluoromethyl-cyclohexyl)-3-methyl-3H-imidazo[4,5-b]pyridine-6-carboxamide], with 100%.

Regarding `Cn1c(Nc2c(Cl)cccc2Cl)nc2cc(C(=O)NC3CCCC(C)(C)C3)cnc21` (stereo not shown) [Example 454, 2-(2,6-Dichlorophenylamino)-N-(3,3-dimethylcyclohexyl)-3-methyl-3H-imidazo[4,5-b]pyridine-6-carboxamide], the inhibition at 10 µM is 99%. Still for that read-out and setting: then `O=C(NCc1ccccc1C(F)(F)F)c1cc2nc(Nc3c(Cl)cncc3Cl)[nH]c2nc1OCC(F)F` [Example 805, 2-(3,5-Dichloro-pyridin-4-ylamino)-5-(2,2-difluoro-ethoxy)-N-((2-trifluoromethyl-phenyl)-methyl)-3H-imidazo[4,5-b]pyridine-6-carboxamide], with 98%; and `CC(C)[C@H]1CC[C@H](NC(=O)c2cnc3c(c2)nc(Nc2c(Cl)cccc2Cl)n3C)CC1` [Example 400, 2-(2,6-Dichlorophenylamino)-N-((1r,4r)-4-isopropylcyclohexyl)-3-methyl-3H-imidazo[4,5-b]pyridine-6-carboxamide], with 97%.

In the case of `O=C(N[C@H]1CC[C@H](C(F)(F)F)CC1)c1cc2nc(Nc3c(F)cccc3C(F)(F)F)[nH]c2nc1OCC(F)F` [Example 781, 2-(2-Fluoro-6-trifluoromethyl-phenylamino)-5-(2,2-difluoro-ethoxy)-N-(trans-4-trifluoromethyl-cyclohexyl)-3H-imidazo[4,5-b]pyridine-6-carboxamide], the inhibition at 1 µM is 99%. On the same count and under the same terms, then `Cn1c(Nc2c(F)cccc2Cl)nc2cc(C(=O)Nc3ccc(Br)cc3)c(OCC(F)F)nc21` [Example 773, N-(4-Bromo-phenyl)-2-(2-fluoro-6-chloro-phenylamino)-5-(2,2-difluoroethoxy)-3-methyl-3H-imidazo[4,5-b]pyridine-6-carboxamide], with 100%.

On to `Cn1c(Nc2c(Cl)cncc2Cl)nc2cc(C(=O)Nc3cc(C(F)(F)F)ccn3)c(OCC(F)(F)F)nc21` [Example 852, 2-(3,5-Dichloro-pyridin-4-ylamino)-5-(2,2,2-trifluoro-ethoxy)-N-(4-trifluoromethyl-pyridin-2-yl)-3-methyl-3H-imidazo[4,5-b]pyridine-6-carboxamide], for which the inhibition at 10 µM was determined as 95%.

Values taken from patent US8703796B2, “3H-imidazo [4, 5-B] pyridine-6-carboxamides as anti-inflammatory agents” (Boehringer Ingelheim International GmbH, priority 2008, dated 2014).
